Assay results taken from PubChem BioAssay (NCI).
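In this assay, cells in 96-well plates receive the compound at five concentrations for 48 hours. Endpoints are linearly interpolated between the surrounding concentrations. GI50 is the concentration that inhibits growth by half. TGI is the concentration that stops growth completely.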

Key:
Test in all cases: NCI tumour cell line growth inhibition, 48 h
COLO 205 colon = system: COLO 205 colon
U251 CNS = system: U251 CNS
MALME-3M melanoma = system: MALME-3M melanoma
CAKI-1 renal = system: CAKI-1 renal
786-0 renal = system: 786-0 renal
DU-145 prostate = system: DU-145 prostate
HT29 colon = system: HT29 colon
SNB-75 CNS = system: SNB-75 CNS
SF-295 CNS = system: SF-295 CNS
SK-MEL-2 melanoma = system: SK-MEL-2 melanoma
BT-549 breast = system: BT-549 breast
RXF 393 renal = system: RXF 393 renal
KM12 colon = system: KM12 colon
OVCAR-4 ovarian = system: OVCAR-4 ovarian
UACC-257 melanoma = system: UACC-257 melanoma
UACC-62 melanoma = system: UACC-62 melanoma
A498 renal = system: A498 renal
A549 NSCLC = system: A549 NSCLC
OVCAR-5 ovarian = system: OVCAR-5 ovarian
K-562 leukemia = system: K-562 leukemia
HL-60(TB) leukemia = system: HL-60(TB) leukemia
EKVX NSCLC = system: EKVX NSCLC
PC-3 prostate = system: PC-3 prostate
T-47D breast = system: T-47D breast
TK-10 renal = system: TK-10 renal
SN12C renal = system: SN12C renal
SF-539 CNS = system: SF-539 CNS
SK-MEL-5 melanoma = system: SK-MEL-5 melanoma
NCI-H23 lung = system: NCI-H23 lung
HOP-92 NSCLC = system: HOP-92 NSCLC
HCT-15 colon = system: HCT-15 colon
SK-OV-3 ovarian = system: SK-OV-3 ovarian
HS 578T breast = system: HS 578T breast
MOLT-4 leukemia = system: MOLT-4 leukemia
NCI-H522 lung = system: NCI-H522 lung
RPMI-8226 leukemia = system: RPMI-8226 leukemia
NCI-H460 lung = system: NCI-H460 lung
MDA-MB-231 breast = system: MDA-MB-231 breast
HOP-62 NSCLC = system: HOP-62 NSCLC
HCT-116 colon = system: HCT-116 colon
SNB-19 CNS = system: SNB-19 CNS
SF-268 CNS = system: SF-268 CNS
UO-31 renal = system: UO-31 renal
ACHN renal = system: ACHN renal
NCI-H226 lung = system: NCI-H226 lung
OVCAR-3 ovarian = system: OVCAR-3 ovarian
SW-620 colon = system: SW-620 colon
OVCAR-8 ovarian = system: OVCAR-8 ovarian
LOX IMVI melanoma = system: LOX IMVI melanoma
HCC-2998 colon = system: HCC-2998 colon
SK-MEL-28 melanoma = system: SK-MEL-28 melanoma
IGROV1 ovarian = system: IGROV1 ovarian
MCF7 breast = system: MCF7 breast

## C=C(CN1CCN(c2ccccc2F)CC1)c1ccc(C(=O)Nc2ccccc2N)cc1
COLO 205 colon
  GI50: 2.67 µM
  TGI: 11.1 µM
U251 CNS
  GI50: 1.4 µM
  TGI: 14.7 µM
MALME-3M melanoma
  GI50: 1.53 µM
  TGI: > 100 µM
CAKI-1 renal
  GI50: 1.81 µM
  TGI: 7.18 µM
786-0 renal
  GI50: 1.88 µM
  TGI: > 100 µM
DU-145 prostate
  GI50: 1.6 µM
  TGI: 6.06 µM
HT29 colon
  GI50: 1.19 µM
  TGI: 4.37 µM
SNB-75 CNS
  GI50: 2.27 µM
  TGI: 8.14 µM
SF-295 CNS
  GI50: 2.38 µM
  TGI: 18 µM
SK-MEL-2 melanoma
  GI50: 8.5 µM
  TGI: > 100 µM
BT-549 breast
  GI50: 1.46 µM
  TGI: 8.82 µM
RXF 393 renal
  GI50: 0.702 µM
  TGI: 7.08 µM
KM12 colon
  GI50: 1.53 µM
  TGI: 11.4 µM
OVCAR-4 ovarian
  GI50: 5.01 µM
  TGI: > 100 µM
UACC-257 melanoma
  GI50: 0.992 µM
  TGI: 35.3 µM
UACC-62 melanoma
  GI50: 1.16 µM
  TGI: 18.3 µM
A498 renal
  GI50: 2.51 µM
  TGI: 22.9 µM
A549 NSCLC
  GI50: 3.52 µM
  TGI: 35.4 µM
OVCAR-5 ovarian
  GI50: 1.29 µM
  TGI: > 100 µM
K-562 leukemia
  GI50: 0.986 µM
  TGI: > 100 µM
HL-60(TB) leukemia
  GI50: 0.353 µM
  TGI: 2.87 µM
EKVX NSCLC
  GI50: 4.67 µM
  TGI: > 100 µM
PC-3 prostate
  GI50: 1.21 µM
  TGI: 4.01 µM
T-47D breast
  GI50: 3.84 µM
  TGI: > 100 µM
TK-10 renal
  GI50: 1.7 µM
  TGI: 59.8 µM
SN12C renal
  GI50: 1.82 µM
  TGI: 40.9 µM
SF-539 CNS
  GI50: 1.55 µM
  TGI: 6.31 µM
SK-MEL-5 melanoma
  GI50: 1.51 µM
  TGI: 16.8 µM
NCI-H23 lung
  GI50: 1.87 µM
  TGI: 8.88 µM
HOP-92 NSCLC
  GI50: 0.611 µM
  TGI: 5.55 µM
HCT-15 colon
  GI50: 0.737 µM
  TGI: > 100 µM
SK-OV-3 ovarian
  GI50: 7.73 µM
  TGI: > 100 µM
HS 578T breast
  GI50: 3.14 µM
  TGI: > 100 µM
MOLT-4 leukemia
  GI50: 0.549 µM
  TGI: 4.86 µM
NCI-H522 lung
  GI50: 1.48 µM
  TGI: 4.41 µM
RPMI-8226 leukemia
  GI50: 1.16 µM
  TGI: 3.78 µM
NCI-H460 lung
  GI50: 4.44 µM
  TGI: > 100 µM
MDA-MB-231 breast
  GI50: 0.24 µM
  TGI: 3.14 µM
HOP-62 NSCLC
  GI50: 1.15 µM
  TGI: 9.45 µM
HCT-116 colon
  GI50: 0.957 µM
  TGI: 13.5 µM
SNB-19 CNS
  GI50: 3.74 µM
  TGI: > 100 µM
SF-268 CNS
  GI50: 2.36 µM
  TGI: > 100 µM
UO-31 renal
  GI50: 1.32 µM
  TGI: 17.3 µM
ACHN renal
  GI50: 2.77 µM
  TGI: > 100 µM
NCI-H226 lung
  GI50: 2.34 µM
  TGI: 17.3 µM
OVCAR-3 ovarian
  GI50: 2.14 µM
  TGI: 7.82 µM
SW-620 colon
  GI50: 1.97 µM
  TGI: > 100 µM
OVCAR-8 ovarian
  GI50: 1.92 µM
  TGI: > 100 µM
LOX IMVI melanoma
  GI50: 1.53 µM
  TGI: 24.4 µM
HCC-2998 colon
  GI50: 3.2 µM
  TGI: 17.7 µM
SK-MEL-28 melanoma
  GI50: 2.57 µM
  TGI: 53.9 µM
IGROV1 ovarian
  GI50: 0.571 µM
  TGI: 4.96 µM
MCF7 breast
  GI50: 0.889 µM
  TGI: > 100 µM
